Assay results: patent US20260217698A1 (BEYANG THERAPEUTICS CO., LTD., priority 2022, published 2026)

Columns and labels:
EGFR = biological target: T1, EGFR (Homo sapiens, UniProt P00533); test: Kinase inhibition, Mobility Shift Assay/IMAP, EGFR; assay type: biochemical
T1 construct: purchased Carna 08-115
Outline: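 Substrate conversion (phosphorylated vs non-phosphorylated) read by mobility shift on Caliper EZ Reader II and converted to % inhibition relative to no-enzyme and DMSO controls. IC50 fitted from % inhibition versus log compound concentration.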

HUVEC cells = test: Inhibition of VEGF-induced HUVEC cell proliferation, CellTiter Glo; assay type: cell-based; settings: Homo sapiens, 20 ng/ml VEGF, 72 hours
Outline: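 HUVEC (4000/well) serum-starved overnight in RPMI-1640 with 5% FBS, compound added 1 h before VEGF (20 ng/ml final in controls). After 72 h at 37 °C, viable cells were quantified by CellTiter-Glo luminescence; % inhibition fitted against log concentration, DMSO+VEGF wells as high control and cell-free wells as low.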

melanin = test: Binding capacity of compounds to melanin; assay type: in vitro ADME, cuttlefish (Sepia officinalis); settings: cuttlefish (Sepia officinalis), melanin suspension (1 mg/mL); 1 mg/mL melanin in PBS pH 7.4, 2 μM compound, 2 h at 37° C.; read-out: Fu % (percentage of free drug)
Outline: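 Compound (2 μM final) incubated with washed Sepia melanin (1 mg/mL, PBS pH 7.4) 2 h at 37° C with shaking; PBS with 0.1% BSA served as blank. Supernatants quantified by LC-MS/MS; bound fraction Fb derived from melanin versus blank concentration.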

T1 sequence (P00533 669-1210 limits assumed): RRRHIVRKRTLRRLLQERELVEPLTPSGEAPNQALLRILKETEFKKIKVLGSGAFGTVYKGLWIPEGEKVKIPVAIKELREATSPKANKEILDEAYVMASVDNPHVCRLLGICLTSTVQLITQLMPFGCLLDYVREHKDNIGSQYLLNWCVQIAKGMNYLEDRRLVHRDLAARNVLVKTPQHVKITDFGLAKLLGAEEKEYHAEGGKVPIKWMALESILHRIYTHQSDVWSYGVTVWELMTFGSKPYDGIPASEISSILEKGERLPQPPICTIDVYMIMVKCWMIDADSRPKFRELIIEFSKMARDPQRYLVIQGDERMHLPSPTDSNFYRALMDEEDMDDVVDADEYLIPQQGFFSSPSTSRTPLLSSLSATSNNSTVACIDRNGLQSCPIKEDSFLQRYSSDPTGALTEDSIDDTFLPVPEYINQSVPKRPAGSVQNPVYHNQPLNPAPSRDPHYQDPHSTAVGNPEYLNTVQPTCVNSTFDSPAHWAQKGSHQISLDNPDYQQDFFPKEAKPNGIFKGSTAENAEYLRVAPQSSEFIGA

Row | Structure (SMILES) | IC50 (EGFR) | fraction unbound at 2 h, 2 μM (melanin) | IC50 (HUVEC cells)
1 | NC(=O)c1c(OCc2cc(C(=O)NC3CC3)ccc2F)nsc1NC(=O)NCCCCN1CCCC1 [Compound T087, 3-[[5-(cyclopropylcarbamoyl)-2-fluoro-phenyl]methoxy]-5-(4-pyrrolidin-1-ylbutylcarbamoylamino)isothiazole-4-carboxamide] | 15200 nM | 0.0374 | 45.4 nM
2 | CN1CCN(CCCNC(=O)Nc2snc(OCc3cc4c(cc3F)CCO4)c2C(N)=O)CC1 [Compound T101, 3-[(5-fluoro-2,3-dihydrobenzofuran-6-yl)methoxy]-5-[3-(4-methylpiperazin-1-yl)propylcarbamoylamino] isothiazole-4-carboxamide] | 9160 nM | 0.0702 | 48.6 nM
3 | NC(=O)c1c(OCc2cc(C(=O)NC3CC3)ccc2Cl)nsc1NC(=O)NCCCCN1CCCC1 [Compound T123, 3-[[2-chloro-5-(cyclopropylcarbamoyl)phenyl]methoxy]-5-(4-pyrrolidin-1-ylbutylcarbamoylamino)isothiazole-4-carboxamide] | 26900 nM | 0.0298 | 17.1 nM

Further lines, with some results ahead:

Row | IC50 (EGFR) | fraction unbound at 2 h, 2 μM (melanin) | Structure (SMILES) | IC50 (HUVEC cells)
4 | 9890 nM | 0.0286 | NC(=O)c1c(OCc2cc3c(cc2F)CCO3)nsc1NC(=O)NCCCCN1CC[C@@H](O)C1 [Compound T091, 3-[(5-fluoro-2,3-dihydrobenzofuran-6-yl)methoxy]-5-[4-[(3R)-3-hydroxypyrrolidin-1-yl]butylcarbamoylamino] isothiazole-4-carboxamide] | 36 nM
5 | 18000 nM | 0.0376 | NC(=O)c1c(OCc2cc(C(=O)NC3CC3)ccc2F)nsc1NC(=O)NCCCN1CC[C@H](F)C1 [Compound T116, 3-[[5-(cyclopropylcarbamoyl)-2-fluoro-phenyl]methoxy]-5-[3-[(3S)-3-fluoropyrrolidin-1-yl]propylcarbamoylamino]isothiazole-4-carboxamide] | 21 nM
6 | 8960 nM | 0.111 | CN1CCN(CCCNC(=O)Nc2snc(OCc3cc(C(=O)NC4CC4)ccc3F)c2C(N)=O)CC1 [Compound T118, 3-[[5-(cyclopropylcarbamoyl)-2-fluoro-phenyl]methoxy]-5-[3-(4-methylpiperazin-1-yl)propylcarbamoylamino]isothiazole-4-carboxamide] | 39 nM
7 | > 60000 nM | 0.0707 | NC(=O)c1c(OCc2c(F)ccc(C(=O)NC3CC3)c2F)nsc1NC(=O)NCCCCN1CCCC1 [Compound T124, 3-[[3-(cyclopropylcarbamoyl)-2,6-difluoro-phenyl]methoxy]-5-(4-pyrrolidin-1-ylbutylcarbamoylamino)isothiazole-4-carboxamide] | 43.6 nM
